{"source": "paper PMC7782499", "about": "“Progerinin, an optimized progerin-lamin A binding inhibitor, ameliorates premature senescence phenotypes of Hutchinson-Gilford progeria syndrome” (Communications Biology, 2021)", "key": {"[1]": {"tested_on": "Lmna G609G/+ mouse", "assay": "Heart rate (electrocardiographic analysis)", "type": "in vivo", "conditions": "LMNA G609G/+ mice, SLC-D011 for 6 weeks", "source_text": "Fig. 4 Oral administration of SLC-D011 suppresses premature aging features. A Gross morphology of SLC-D011-treated (D011) mice at 8 weeks old. Body size of treated mouse was apparently larger than that of the untreated control (Con) mouse. B Oral administration of SLC-D011 increases body weights of Lmna^G609G/G609G mice. Compared with untreated control group, body weight of treated mouse was increased by ~35%, *p < 0.05. C Oral administration of SLC-D011 extends the life span of Lmna^G609G/G609G mouse. SLC-D011 in monoolein-based solution was treated by oral gavage (50 mg/kg, daily) from 5 weeks old. […] E Grip test of Lmna^G609G/+ mice at 41-week-old was performed after administration of SLC-D011 for 6 weeks. The test was repeated 10 times for each mouse (n > 4), **p < 0.001. Data are presented as mean ± SD. […] H Anti-aging effects of single treatment of SLC-D011 or lonafarnib were measured in HGPS patients-derived cells (AG11513, AG03199, AG11498, and AG03198, Coriell Cell Repositories). […] No unit is printed with them; the x axis reads Age (weeks). / Panel C: Ave=16.8 / Max=18 are printed beside the dashed curve of the control (Con). […]\nFor analysis of heart rate, mice were anesthetized with 2.5% isoflurane and monitored using LOGIQ E9 (GE Healthcare). […] Each estimate given corresponded to total reads measured ten times, excluding the minimum and the maximum from each group of animals."}, "[2]": {"tested_on": "Sprague-Dawley rats", "assay": "Single oral gavage dose toxicity study in SD rats", "type": "in vivo", "conditions": "for Mortality: Day 1-7; for External Gross Observation: No gross findings (animals of 3) / Internal Gross Observation: No gross findings (animals of 3): Sprague-Dawley, 7 day", "source_text": "The protocol and procedures involving the care and use of animals in this study was reviewed and approved by IACUC of QuBEST BIO prior to conduct (Approval no.: QBSIACUC-A18122). During the study, the care and use of animals will be conducted in accordance with all applicable guidelines of Animal Welfare Act. Eleven specific pathogen-gree Sprague-Dawley rats (~6 weeks old) were obtained from SAMTAKO Ltd. (Osan, Korea) and nine rats were used for the study. […] Food was withheld for a further 3–4 h after dosing. Each dose was based on the most recent body weight of each animal and the dose volume was […]. The dosing day was designated as Day 1. All animals were observed twice daily for mortality and moribundity during the study. A clinical observation was performed for all animals at the time of dosing and approximately 1, 2, and 4 h post-dose on dosing day, and once daily during 7-day observation period. Observations were included, but are not limited to, changes in the skin, fur, eyes and mucous membrane; respiratory, circulatory, autonomic and central nervous system function; somatomotor activity and behavior patterns. Individual body weights were measured for all animals on the day of animal receipt, randomization, prior to dosing start (Day 1) and study period (Days 4 and 7). Those animals survived on completion of the 7-day observation period were weighed body weight prior to necropsy and CO2 inhalation anesthesia and exsanguinated from the abdominal aorta. In order to avoid autolytic change, a complete gross pathology examination of the carcass was performed as soon as possible after euthanasia of all animals. Necropsy was consisted of an external examination, including identification of all clinically recorded lesions, as well as a detailed internal examination. Toxicity studies were performed by QuBEST BIO Co., Ltd (Yongin, Korea).\nThe objective of this study was to investigate the potential acute toxicity or approximate lethal dose of SLC-D011 following a single oral gavage administration to the SD rats.\nThe study group is detailed in Text Table 1.\nText Table 1. Study Group\nThe following parameters were evaluated: mortality (twice daily), clinical signs (1, 2, and 4 ho urs post-dose on dosing day, and once daily during 7-day period), body weights (on Days 1, 4 and 7), and […]\nMortality and Clinical Observation […]\nThe oral gavage route was selected since it is the intended route of administration in humans. […]\nThe study groups and dose level were assigned as below after consultation with the Sponsor. […]\nAfter overnight fasting (approximately 16 hours, food but not water should be withheld overnight), test article formulations were dosed using a plastic disposable feeding needle attached to a plastic disposable syringe. Food was withheld for a further 3~4 hours after dosing. Each dose was based on the most recent body weight of each animal and the dose volume was 10 mL/kg. The dosing day was designated as study Day 1.\nAll animals were observed twice daily [once (am) on weekend and holiday] for mortality and moribundity during the study.\nA clinical observation was performed for all animals at the time of dosing and approximately 1, 2 and 4 hours post-dose on dosing day, and once daily during 7-day observation period."}, "[3]": {"conditions": "female, rat, in vivo, 500 mg/kg"}}, "note": "Values joined by “and” are separate entries in the source; they are usually repeats but may differ in a detail not shown here. Equal entries are not always repeated."}
{"smiles": "CC1(C)Oc2cc3oc(=O)ccc3cc2C[C@@H]1OC/C=C/c1ccccc1", "note": "[SLC-D011]", "values": [{"measurement": "Heart rate", "setting": "[1]", "value": "462 bmp and 447 bmp and 432 bmp and 454 bmp"}, {"measurement": "Mortality", "setting": "[2]; female rats, 500 mg/kg", "value": "0/3"}, {"measurement": "Mortality", "setting": "[2]; female rats, 2,000 mg/kg", "value": "0/3"}, {"measurement": "External Gross Observation: No gross findings (animals of 3)", "setting": "[2]; [3]", "value": 3}, {"measurement": "Internal Gross Observation: No gross findings (animals of 3)", "setting": "[2]; [3]", "value": 3}, {"measurement": "Mortality", "setting": "[2]; male rats, 500 mg/kg", "value": "0/3"}, {"measurement": "Mortality", "setting": "[2]; male rats, 2,000 mg/kg", "value": "0/3"}, {"measurement": "External Gross Observation: No gross findings (animals of 3)", "setting": "[2]; male, rat, in vivo, 500 mg/kg", "value": 3}, {"measurement": "Internal Gross Observation: No gross findings (animals of 3)", "setting": "[2]; male, rat, in vivo, 500 mg/kg", "value": 3}, {"measurement": "Clinical Observation", "setting": "[2]; rat, in vivo, 500 mg/kg", "value": "Appears Normal"}, {"measurement": "Tolerability", "setting": "[2]; single oral gavage at 500 and 2,000 mg/kg", "value": "well tolerated"}, {"measurement": "Approximate lethal dose (ALD)", "setting": "[2]; single oral gavage, both sexes", "value": "> 2,000 mg/kg"}]}
